In PubChem BioAssay (NCI):
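In this assay, cells in 96-well plates receive the compound at five concentrations for 48 hours. Endpoints are linearly interpolated between the surrounding concentrations. At the TGI there is no net growth.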

Columns and labels:
Assay in all cases: NCI anticancer screen, dose series, 48 h
786-0 renal = test system: 786-0 renal
A498 renal = test system: A498 renal
A549 NSCLC = test system: A549 NSCLC
ACHN renal = test system: ACHN renal
CAKI-1 renal = test system: CAKI-1 renal
CCRF-CEM leukemia = test system: CCRF-CEM leukemia
COLO 205 colon = test system: COLO 205 colon
DLD-1 colon = test system: DLD-1 colon
DMS 114 small cell lung = test system: DMS 114 small cell lung
DMS 273 small cell lung = test system: DMS 273 small cell lung
EKVX NSCLC = test system: EKVX NSCLC
HCC-2998 colon = test system: HCC-2998 colon
HCT-116 colon = test system: HCT-116 colon
HCT-15 colon = test system: HCT-15 colon
HL-60(TB) leukemia = test system: HL-60(TB) leukemia
HOP-18 NSCLC = test system: HOP-18 NSCLC
HOP-62 NSCLC = test system: HOP-62 NSCLC
HOP-92 NSCLC = test system: HOP-92 NSCLC
HT29 colon = test system: HT29 colon
IGROV1 ovarian = test system: IGROV1 ovarian
K-562 leukemia = test system: K-562 leukemia
KM12 colon = test system: KM12 colon
KM20L2 colon = test system: KM20L2 colon
LOX IMVI melanoma = test system: LOX IMVI melanoma
LXFL 529 NSCLC = test system: LXFL 529 NSCLC
M14 melanoma = test system: M14 melanoma
M19-MEL melanoma = test system: M19-MEL melanoma
MALME-3M melanoma = test system: MALME-3M melanoma
MOLT-4 leukemia = test system: MOLT-4 leukemia
NCI-H226 lung = test system: NCI-H226 lung
NCI-H23 lung = test system: NCI-H23 lung
NCI-H460 lung = test system: NCI-H460 lung
NCI-H522 lung = test system: NCI-H522 lung
OVCAR-3 ovarian = test system: OVCAR-3 ovarian
OVCAR-4 ovarian = test system: OVCAR-4 ovarian
OVCAR-8 ovarian = test system: OVCAR-8 ovarian
RPMI-8226 leukemia = test system: RPMI-8226 leukemia
RXF-631 renal = test system: RXF-631 renal
SF-268 CNS = test system: SF-268 CNS
SF-295 CNS = test system: SF-295 CNS
SF-539 CNS = test system: SF-539 CNS
SK-MEL-2 melanoma = test system: SK-MEL-2 melanoma
SK-MEL-28 melanoma = test system: SK-MEL-28 melanoma
SK-MEL-5 melanoma = test system: SK-MEL-5 melanoma
SK-OV-3 ovarian = test system: SK-OV-3 ovarian
SN12C renal = test system: SN12C renal
SNB-75 CNS = test system: SNB-75 CNS
SNB-78 CNS = test system: SNB-78 CNS
SR leukemia = test system: SR leukemia
SW-620 colon = test system: SW-620 colon
TK-10 renal = test system: TK-10 renal
U251 CNS = test system: U251 CNS
UACC-257 melanoma = test system: UACC-257 melanoma
UACC-62 melanoma = test system: UACC-62 melanoma
UO-31 renal = test system: UO-31 renal
RXF 393 renal = test system: RXF 393 renal
SNB-19 CNS = test system: SNB-19 CNS

Measured: TGI

CC(C)CN(CC(C)C)C(=O)C1CCCC[C@@H]1C(=O)O (stereo not given in full)
not listed: RXF 393 renal | SNB-19 CNS
> 100 µM: all other assays above

CCOP(=O)(OCC)C1=NC=CC=CC1n1c(-c2ccccc2)nn(CC)c1=O (stereo not given)
not listed: A498 renal | K-562 leukemia | M14 melanoma | OVCAR-4 ovarian | SNB-75 CNS | SNB-78 CNS | UO-31 renal
> 100 µM: all other assays above
